# Test results from patent US9061984B2 (University of Louisville Research Foundation, Inc., priority 2008, dated 2015).
# Where “and” joins values, the source holds several entries; their conditions need not be identical. Identical values can stand only once. Like-named read-outs stand apart in the source and are kept apart here.
# Key:
# 3T3 cells = assay: Cell growth inhibition bioassay (sulforhodamine B); assay type: cell-based, mouse; details: for GI50: Mus musculus, NIH3T3, read-out: GI50 in indicated cell line: 3T3
# Outline: (§1)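 Cells were exposed to compound alongside matched solvent controls, then stained with sulforhodamine B. Percent growth inhibition was calculated from dye absorbance against the control.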
# HT-29 cells = assay: Cell growth inhibition bioassay (sulforhodamine B); assay type: cell-based, human; details: 48 h, SRB; for GI50: Homo sapiens, HT-29, read-out: GI50 in indicated cell line: HT-29
# Outline: as §1
# H460 cells = assay: Cell growth inhibition bioassay (sulforhodamine B); assay type: cell-based, human; details: 48 h, SRB; for GI50: Homo sapiens, NCI-H460, read-out: GI50 in indicated cell line: H460
# Outline: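 SRB colorimetric read-out; % growth inhibition vs solvent control. Human lines: MCF-7 (breast adenocarcinoma), DU145 (prostate carcinoma), PC3 (prostate adenocarcinoma), H460 (large cell lung cancer).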
# MCF-7 cells = assay: Cell growth inhibition bioassay (sulforhodamine B); assay type: cell-based, human; details: 48 h, SRB; for GI50: Homo sapiens, MCF7, read-out: GI50 in indicated cell line: MCF-7
# Outline: (§2)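 Human cancer cells (MCF-7 breast, DU145 and PC3 prostate, H460 large cell lung) were treated with compounds. Growth relative to solvent control was quantified by SRB protein stain.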
# K562 cells = assay: Cell growth inhibition bioassay (sulforhodamine B); assay type: cell-based, human; details: 48 h, SRB; for GI50: Homo sapiens, K562, read-out: GI50 in indicated cell line: K562
# Outline: as §1
# M-14 cells = assay: Cell growth inhibition bioassay (sulforhodamine B); assay type: cell-based, human; details: 48 h, SRB; for GI50: Homo sapiens, M14, read-out: GI50 in indicated cell line: M-14
# Outline: as §1
# DU145 cells = assay: Cell growth inhibition bioassay (sulforhodamine B); assay type: cell-based, human; details: 48 h, SRB; for GI50: Homo sapiens, DU-145, read-out: GI50 in indicated cell line: DU145
# Outline: as §2
# PC3 cells = assay: Cell growth inhibition bioassay (sulforhodamine B); assay type: cell-based; details: Homo sapiens, PC-3; 48 h, SRB; read-out: GI50 in indicated cell line: PC3
# Description: The cytotoxicity of compounds was assayed as follows. […] Appropriate solvent controls were tested for comparison. The percent inhibition of cell growth relative to the control was evaluated colorimetrically using a sulforhodamine B dye by comparison to the control. The calorimetric procedure followed that published in Skehan et al., J. Nat. Cancer Inst., […], pp. 1107-1112 (1990) and Boyd & Paull, Drug Dev. Res., Vol. 34, pp. 91-109 (1995). […] The cell lines are: 3T3 cells are BALB/3T3 clone A31 embryonic mouse fibroblast cells; H460 cells are human large cell lung cancer cells; DU145 cells are human prostate carcinoma cells; MCF-7 cells are human breast adenocarcinoma cells; M-14 cells are human melanoma cells; HT-29 cells are human colon adenocarcinoma cells; PC3 cells are human prostate adenocarcinoma cells; K562 cells are human chronic myelogenous leukemia cells; and VERO cells are African Green Monkey kidney epithelial cells.
# [1] = test system: Trypanosoma cruzi (Tulahuen C4); assay: In vitro anti-T. cruzi activity (β-galactosidase CPRG colorimetric assay in VERO monolayer); assay type: cell-based; details: for T. cruzi Inhib. (%) / inhibition at 10 µg/mL: 10 μg/mL of each compound, 120 hours; for inhibition at 10 µg/mL / IC50: Trypanosoma cruzi, TULAHUEN, Vero; for inhibition at 10 µg/mL: 120 h, read-out: T. cruzi Inhib. (%)
# M. tuberculosis H37Rv [2] = assay: Conventional aerobic (MABA) culture assay, luminescence MIC; assay type: cell-based, Mycobacterium tuberculosis; details: aerobic, 7 days, H37Rv
# VERO cell = assay: Cytotoxicity VERO cell (Table 6); details: Table 6
# peritoneal macrophages = assay: Toxicity to peritoneal macrophages (Trypan Blue count); assay type: cell-based, BALB/C mouse
# VERO cells [3] = assay: Cell growth inhibition bioassay (sulforhodamine B); assay type: cell-based, African Green Monkey; details: 48 h, SRB
# Outline: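 Cytotoxicity is read by sulforhodamine B colorimetry following the Skehan protocol; values are growth inhibition relative to solvent-only wells.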
# [4] = test system: axenic amastigotes of L. amazonensis (strain MHOM/BR/76/LTB-012); details: Table 8b; for IC50: read-out: L. amazonensis IC50
# VERO cells [5] = assay: Cytotoxicity on VERO cells (MTT), anti-T. cruzi study; details: Lab B
# M. tuberculosis H37Rv [6] = assay: Anti-tuberculosis bioassay (tetrazolium microplate MIC); assay type: cell-based; details: Mycobacterium tuberculosis, read-out: Mycobacterium MIC H37Rv, Table 5
# [7] = Toxicity to peritoneal macrophages (Trypan Blue count); assay type: cell-based, BALB/C mouse; details: BALB/C, mouse
# M. tuberculosis MDR = assay: Anti-tuberculosis bioassay (tetrazolium microplate MIC); assay type: cell-based; details: Mycobacterium tuberculosis, read-out: Mycobacterium MIC MDR
# [8] = test system: axenic amastigotes of L. amazonensis (strain MHOM/BR/76/LTB-012); assay: microbe, parasite or virus in culture; details: Leishmania amazonensis
# [9] = Cytotoxicity on VERO cells (MTT), anti-T. cruzi study; details: African green monkey, VERO cells
# VERO cells [10] = assay: VERO cells IC50 (Table 5); assay type: cell-based, African green monkey; details: Chlorocebus sabaeus
# [11] = test system: non-replicating persistence Mycobacterium tuberculosis (NRP-TB); assay: Low oxygen recovery assay (LORA); assay type: cell-based; details: anaerobic 10 days, 28 hour recovery; value in brackets
# [12] = Table 3, read-out: IC50 T. cruzi
SMILES,"GI50 (3T3 cells; 48 h, SRB)",GI50 (HT-29 cells),GI50 (H460 cells),GI50 (MCF-7 cells),GI50 (K562 cells),GI50 (M-14 cells),GI50 (DU145 cells),MIC MABA (M. tuberculosis H37Rv [2]) [µg/mL],"GI50 in indicated cell line: 3T3 (3T3 cells; 48 h, SRB) [µg/mL]",Cytotoxicity VERO cell (VERO cell) [µg/mL],GI50 in indicated cell line: HT-29 (HT-29 cells) [µg/mL],GI50 in indicated cell line: H460 (H460 cells) [µg/mL],GI50 in indicated cell line: MCF-7 (MCF-7 cells) [µg/mL],GI50 in indicated cell line: K562 (K562 cells) [µg/mL],GI50 in indicated cell line: M-14 (M-14 cells) [µg/mL],GI50 in indicated cell line: DU145 (DU145 cells) [µg/mL],IC50 (peritoneal macrophages) [µM],GI50 in indicated cell line: VERO (VERO cells [3]) [µg/mL],IC50 [4] [µM],T. cruzi IC50 Lab A [1] [µg/mL],also measured
"COc1ccc(CCC(=O)c2c(O)cc(O)cc2OC)cc1 [Compound I-07, 1-(2,4-Dihydroxy-6-methoxyphenyl)-3-(4-methoxyphenyl)-1-propanone]",> 206 µM,> 206 µM,128 µM,65.5 µM,22.8 µM,109 µM,> 206 µM,–,–,–,–,–,–,–,–,–,–,–,–,–,"GI50 (PC3 cells): 59.9 µM; T. cruzi Inhib. (%) [1]: 27.74%; inhibition at 10 µg/mL [1]: 20.5%; IC50 [1, 12]: > 25 µM; melting point: 166 °C"
Fc1ccc(C=NNc2ncnc3sc4c(c23)CCCC4)cc1 [II-26],–,–,–,–,–,–,–,23.2,6.7,12.8,3.4,3.1,2.4,2.9,5.7,4.5,3.1,4.2,3.2,1.9,T. cruzi IC50 Lab B ([1]; Lab B): 6.0 µg/mL; Cytotoxicity VERO Lab B (VERO cells [5]): 6.0
CC(C)(C)C=NNc1ncnc2sc3c(c12)CCCC3 [II-36],–,–,–,–,–,–,–,86.3,2.1,29.6,9.5,7.1,7.5,7.9,9.4,7.2,50.7,9.7,32.5,5.3,–
"COc1cc(O)c(C(=O)CCc2ccc3c(c2)OCO3)c(OC)c1 [Compound I-04, 3-(1,3-Benzodioxol-5-yl)-1-(2-hydroxy-4,6-dimethoxyphenyl)-1-propanone]",21.5 µM,145 µM,105 µM,42.4 µM,28.2 µM,82 µM,60.2 µM,–,–,–,–,–,–,–,–,–,–,–,–,–,"GI50 (PC3 cells): 39.1 µM; T. cruzi Inhib. (%) [1]: 12.96% and 3.24%; IC50 [1, 12]: > 100 µM; melting point: 125 °C"
Fc1ccccc1/C=N\Nc1ncnc2sc3c(c12)CCCC3 [II-27],> 93.8 µg/mL,> 93.8 µg/mL,> 93.8 µg/mL,24.5 µg/mL,26.5 µg/mL,> 93.8 µg/mL,> 93.8 µg/mL,–,–,–,–,–,–,–,–,–,–,–,–,–,"MIC (M. tuberculosis H37Rv [6]): 3.12 µg/mL; MIC (M. tuberculosis H37Rv [2]; Mycobacterium tuberculosis, 168 h): > 100 µg/mL; IC50 at 48 h ([7]; Cytotoxicity Macrophages IC50): 3.3 µM; IC50 at 48 h ([7]; IC50 Cytotoxicity Against Macrophages): > 10 µM; MIC (M. tuberculosis MDR): 3.12 µg/mL; GI50 (VERO cells [3]; Chlorocebus sabaeus, Vero, read-out: GI50 in indicated cell line: VERO): > 93.8 µg/mL; IC50 ([8]; read-out: IC50 Cytotoxicity Against Amastigotes): 3200 nM; IC50 ([8]; read-out: L. amazonensis IC50): 1100 nM; Selectivity Index [4]: 3.1; Selectivity Index Lab B ([1]; IC50, VERO/IC50, T. cruzi, Lab B): 1.7; inhibition at 10 µg/mL [1]: 78.9%; IC50 ([1]; Lab B, read-out: T. cruzi IC50 Lab B): 3.5 µg/mL; IC50 ([1]; Table 2, read-out: IC50 - T. cruzi): 4.37 µg/mL; IC50 ([9]; Cytotoxicity VERO Lab B, Lab B): 6 µg/mL; IC50 ([9]; IC50 - VERO Cytotoxicity, Table 2): 7 µg/mL; IC50 (VERO cells [10]): 27.7 µg/mL"
NNc1ncnc2sc3c(c12)CCCC3 [PC],–,–,–,–,–,–,–,82.5,–,26.9,4.6,2.1,2.0,2.4,5.4,3.1,–,2.5,12,4.1,"GI50 in indicated cell line: 3T3 (3T3 cells): <0.98 µg/mL; IC50 (peritoneal macrophages; Table 8b, read-out: Cytotoxicity Macrophages IC50): 7.4 µM; T. cruzi IC50 Lab B ([1]; Lab B): 4.7 µg/mL; Cytotoxicity VERO Lab B (VERO cells [5]): 9.0"
"COc1ccc(CCC(=O)c2c(O)cc(OC)cc2OC)cc1 [Compound I-03, 1-(2-Hydroxy-4,6-dimethoxyphenyl)-3-(4-methoxyphenyl)-1-propanone]",> 197 µM,> 197 µM,> 197 µM,> 197 µM,> 197 µM,> 197 µM,> 197 µM,–,–,–,–,–,–,–,–,–,–,–,–,–,"GI50 (PC3 cells): > 197 µM; IC50 [1, 12]: > 100 µM; melting point: 107 °C"
C(=Cc1ccccc1)C=NNc1ncnc2sc3c(c12)CCCC3 [II-04],–,–,–,–,–,–,–,11.7,1.5,1.2,2.7,0.7,0.7,0.5,1.6,1.8,0.6,0.6,5.5,0.4,T. cruzi IC50 Lab B ([1]; Lab B): 0.5 µg/mL; Cytotoxicity VERO Lab B (VERO cells [5]): 7.0
FC(F)(F)c1ccccc1C=NNc1ncnc2sc3c(c12)CCCC3 [II-25],–,–,–,–,–,–,–,5.9,6.0,7.6,1.7,2.0,1.8,0.6,2.5,1.3,1.2,1.7,0.4,0.5,MIC LORA [11]: 5.8 µg/mL; T. cruzi IC50 Lab B ([1]; Lab B): 5.2 µg/mL; Cytotoxicity VERO Lab B (VERO cells [5]): 3.0
